Laboratory results as given in patent US20240366624A1, “METHODS AND COMPOSITIONS FOR TREATING THROMBOTIC DISEASE” (Washington University, priority 2023, published 2024).
“Also recorded” adds a separate entry of the source.

Experiments:
WT mouse platelets = experiment: Platelet aggregation, WT mouse platelets; type: cell-based
Procedure: FIG. 9(A-C) is an exemplary embodiment of EN460 inhibiting thrombin-induced aggregation of mouse and human platelets in accordance with the present disclosure. (A) Human (FIG. 9A), WT (FIG. 9B), and Ero1α-null (FIG. 9C) platelets were pretreated with EN460, an ERO1α inhibitor, at 1, 3, or 10 μM, and treated with 0.025 U/ml thrombin to induce platelet aggregation. The data represent the mean±SD (n=3). P values determined by ANOVA and Dunnett's test (FIG. 9(A-B)) or Student's t-test (FIG. 9C).
FIG. 10(A-E) is an exemplary embodiment of 15E9 not affecting platelet activation and aggregation in accordance with the present disclosure. […] P values determined by unpaired Student's t-test (vs. mIgG1).
FIG. 18(A-R) is an exemplary embodiment of novel small-molecule inhibitors recapitulating the defect in Ero1α (endoplasmic reticulum oxidoreductase 1a)-null platelets in accordance with the present disclosure. […] After incubation with a different concentration of B12-5, the specific interaction between B12-5 and ERO1α was measured by subtracting the nonspecific binding. The KD value was calculated from the Kon and Koff values. […] P values determined by ANOVA and Dunnett test (FIG. 18(B-E), FIG. 18(1-L), and FIG. 18(O-R) [for B12-5]) or Student t test (FIG. 18M, FIG. 18N, and FIG. 18(O-R) [for BAPTA (1,2-bis(o-aminophenoxy)ethane-N,N,N′,N′-tetraacetic acid)]).

Ero1α-null platelets = experiment: Platelet aggregation, Ero1α-null platelets; type: cell-based, mouse
Procedure: FIG. 7(A-L) is an exemplary embodiment of crucial intracellular ERO1α (endoplasmic reticulum oxidoreductase 1a) for platelet activation, aggregation, and thrombus formation in accordance with the present disclosure. FIG. 7A: Ex vivo platelet thrombus formation in a flow chamber assay. Adherent and aggregated platelets were stained with rhodamine-conjugated phalloidin and imaged by confocal microscopy. Representative images (bar, 10 μm). Surface coverage and thrombus volume were measured (mean±SD, n=4). FIG. 7(B-E): Aggregation and ATP secretion of wild type (WT) and Ero1α-null platelets were induced by 0.025 U/mL thrombin, 0.05 μg/mL CRP (collagen-related peptide), 0.5 μM A23187, or 2.5 μM ADP. Platelet aggregation (i) and ATP secretion (ii). FIG. 7F: Ero1α-null platelets were pretreated with 50 μg/mL wtERO1α or wtPDI and then with 0.025 U/mL thrombin. Quantification graphs of aggregation and ATP secretion are presented as the mean±SD (n=3-4). FIG. 7G and FIG. 7H: P-selectin exposure and αIIbβ3 integrin activation of WT and Ero1α-null platelets were analyzed by flow cytometry. The data are presented as the geometric mean fluorescence intensity (MFI) value (mean±SD, n=3-4). FIG. 7I: WT and Ero1α-null platelets were treated with or without 0.025 U/mL thrombin for 1 minute in an aggregometer. The lysates were immunoprecipitated with control IgG or anti-β3 antibodies and subjected to immunoblotting with antibodies against talin1 or β3 and densitometric analysis (mean±SD, n=3). FIG. 7J: WT and Ero1α-null platelets were treated with or without 0.025 U/mL thrombin, followed by transmission electron microscopy. The original magnification was 34 800, and the extension was 313 000. Bar, 500 nm. FIG. 7K and FIG. 7L: Intravital microscopy was performed to determine the effect of 15E9 (1-3 μg/g body weight [BW]) and a blocking anti-PDI (protein disulfide isomerase) antibody (BD34, 3 μg/g BW) on platelet thrombus formation and fibrin generation at the site of laser-induced cremaster arteriolar injury (n=27-40 arterioles in 6 mice per group). The n indicates biological replicates. P values determined by unpaired Student t test (FIG. 7(A-E) and FIG. 7(G-1)), ANOVA and Dunnett test (FIG. 7F), or Mann-Whitney U test (FIG. 7K and FIG. 7L).
FIG. 9(A-C) is an exemplary embodiment of EN460 inhibiting thrombin-induced aggregation of mouse and human platelets in accordance with the present disclosure. […] P values determined by ANOVA and Dunnett's test (FIG. 9(A-B)) or Student's t-test (FIG. 9C).
FIG. 10(A-E) is an exemplary embodiment of 15E9 not affecting platelet activation and aggregation in accordance with the present disclosure. […] P values determined by unpaired Student's t-test (vs. mIgG1). […]

SMILES	thrombin- or CRP-induced WT platelet aggregation (WT mouse platelets; 10 μM)	Ero1α-null platelet aggregation (Ero1α-null platelets; 10 μM / up to 10 μM)	thrombin-induced aggregation (WT mouse platelets; 3 to 10 μM, mouse platelets)	Ero1α-null platelet aggregation (Ero1α-null platelets; 3 μM)	Ero1α-null platelet aggregation (Ero1α-null platelets; 3 to 10 μM)
O=C(CSc1nc(O)cc(O)n1)N1c2ccccc2Sc2ccccc21 [B12-5]	significantly mitigated	without affecting; also recorded: did not show an additional effect			
O=C(O)c1cc(N2N=C(C(F)(F)F)/C(=C/c3ccc(-c4ccccc4)o3)C2=O)ccc1Cl [EN460]			abrogated	abolished; also recorded: completely blocked	significantly inhibited
